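Protocol summary: plate cells (96-well), add compound at 5 concentrations, incubate 48 h, interpolate endpoints linearly. GI50 = concentration required for 50% inhibition of growth.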 The source made the active and inactive calls. Rule as the data show it: active = GI50 up to about 1.1 µM and inactive = higher.

This note sets out measurements from ChEMBL document CHEMBL1201862, “PubChem BioAssay data set” (2004).

Among the test systems are OVCAR-5; HL-60; RPMI-8226; SK-MEL-5; NCI-H460; UO-31; IGROV-1; OVCAR-8; HCT-116; HT-29; SNB-19; HOP-92; LXFL 529; RXF 393; K562; NCI-H23.
Holding throughout (test): inhibition of tumour cell growth, NCI panel, 48 h

As for `NCCc1ccc2oc3cc(=O)c4ccccc4c-3nc2c1`, the GI50 in the experiment with OVCAR-5 was 6.14 µM (inactive); with HL-60, 1.68 µM (inactive); with RPMI-8226, 2.55 µM (inactive); in the experiment on SK-MEL-5, 0.705 µM (active); in the experiment with NCI-H460 it was 0.9 µM (active); in the experiment with UO-31, 2.14 µM (inactive). Further, the GI50 with IGROV-1 was 2.59 µM (inactive); in the experiment with OVCAR-8, 4.91 µM (inactive); in the experiment with HCT-116, 1.41 µM (inactive); with HT-29 it was 1.82 µM (inactive); with SNB-19 it was 2.71 µM (inactive); with HOP-92, 7.71 µM (inactive). Besides, the GI50 in the experiment with LXFL 529 was 2.58 µM (inactive); in the experiment on RXF 393, 2.84 µM (inactive); in the experiment with K562 it was 2.02 µM (inactive); in the experiment with NCI-H23, 0.746 µM (active).

On to `O=C1NC(=O)C(=Cc2c3ccccc3cc3ccccc23)C(=O)N1`, for which the GI50 in the experiment on HL-60 was 44.7 µM (inactive); in the experiment on RPMI-8226, 31.6 µM (inactive); in the experiment with SK-MEL-5 it was > 100 µM (inactive); in the experiment with NCI-H460 it was > 100 µM (inactive); in the experiment with UO-31, > 100 µM (inactive); with IGROV-1 it was > 100 µM (inactive). The GI50 in the experiment with OVCAR-8 was > 100 µM (inactive); in the experiment on HCT-116, > 100 µM (inactive); in the experiment on HT-29, 55.1 µM (inactive); with SNB-19, > 100 µM (inactive); with HOP-92 it was > 100 µM (inactive); in the experiment on LXFL 529, 79.4 µM (inactive). The GI50 in the experiment on RXF 393 is > 100 µM (inactive); in the experiment with K562 it was 71.3 µM (inactive); in the experiment with NCI-H23 it was > 100 µM (inactive).

As to `O=C1CC2CCN(C(=O)c3ccccc3)CC2CCN1.O=C1CCC2CC(C(=O)c3ccccc3)CCC2CN1` (stereo not drawn), the GI50 in the experiment on OVCAR-5 is > 100 µM (inactive); with HL-60, > 100 µM (inactive); in the experiment on RPMI-8226, > 100 µM (inactive); in the experiment with SK-MEL-5, 42.6 µM (inactive); with NCI-H460 it was > 100 µM (inactive); in the experiment on UO-31, > 100 µM (inactive). In addition, the GI50 with IGROV-1, with OVCAR-8, with HCT-116, in the experiment with HT-29, in the experiment on SNB-19 and in the experiment on LXFL 529 was > 100 µM (inactive) in each case. In addition, the GI50 in the experiment with RXF 393, in the experiment on K562 and in the experiment on NCI-H23 was > 100 µM (inactive) throughout.

Turning to `N#Cc1nc(Nc2ccc(Cl)cc2)sc1N`, the GI50 in the experiment on OVCAR-5 is 12.1 µM (inactive); in the experiment with HL-60 it was 4.92 µM (inactive); in the experiment with RPMI-8226 it was 2.34 µM (inactive); with SK-MEL-5 it was 2.61 µM (inactive); in the experiment with NCI-H460 it was 16.4 µM (inactive); in the experiment on UO-31, 3.62 µM (inactive). The GI50 in the experiment on IGROV-1 was 19.5 µM (inactive); in the experiment on OVCAR-8, 16.7 µM (inactive); in the experiment with HCT-116, 6.44 µM (inactive); with HT-29, 19.7 µM (inactive); in the experiment with SNB-19, 22.1 µM (inactive); with HOP-92 it was 20.9 µM (inactive). Further, the values for the GI50 with LXFL 529, in the experiment with K562 and in the experiment on NCI-H23 were 3.55 µM (inactive), 3.91 µM (inactive) and 3.19 µM (inactive), respectively.

Regarding `CCCCCNC(=O)C1C(=O)N(CCCCC)C(=O)/C1=N\N` (stereo not drawn), the GI50 is > 100 µM (inactive) in the experiment on OVCAR-5; > 100 µM (inactive) in the experiment with HL-60; 29 µM (inactive) in the experiment with SK-MEL-5; 78.5 µM (inactive) in the experiment on NCI-H460; 26.8 µM (inactive) with UO-31; 53 µM (inactive) in the experiment on IGROV-1. Further, the GI50 was 49.2 µM (inactive) in the experiment on OVCAR-8; 83.8 µM (inactive) in the experiment with HT-29; 35.2 µM (inactive) in the experiment on SNB-19; 37.8 µM (inactive) with HOP-92; 41.2 µM (inactive) in the experiment with LXFL 529; 34.4 µM (inactive) in the experiment on K562. Further, the GI50 in the experiment with NCI-H23 was 47.5 µM (inactive).

As to `NCCCNCCCCN(CCCN)/[N+]([O-])=N\O`, the GI50 is > 100 µM (inactive) in the experiment on OVCAR-5; > 100 µM (inactive) in the experiment with HL-60; 29.8 µM (inactive) in the experiment with RPMI-8226; > 100 µM (inactive) in the experiment on SK-MEL-5; > 100 µM (inactive) in the experiment with NCI-H460; > 100 µM (inactive) in the experiment with UO-31. The GI50 in the experiment on IGROV-1, with OVCAR-8, with HCT-116, in the experiment on HT-29, in the experiment on SNB-19 and in the experiment with HOP-92 was > 100 µM (inactive) throughout. The GI50 with LXFL 529, in the experiment on RXF 393, in the experiment on K562 and in the experiment with NCI-H23 was > 100 µM (inactive) throughout.

In the case of `O=C(O/N=C1/CCCC/C1=C\c1ccccc1)c1ccccc1`, the GI50 in the experiment on OVCAR-5 is > 100 µM (inactive); with HL-60 it was 20.2 µM (inactive); with RPMI-8226, > 100 µM (inactive); with SK-MEL-5, 0.146 µM (active); in the experiment with NCI-H460, > 10 µM (inactive); with UO-31, > 100 µM (inactive). The GI50 with IGROV-1 is 0.108 µM (active); in the experiment with OVCAR-8, 42.5 µM (inactive); in the experiment with HCT-116, 34 µM (inactive); in the experiment with HT-29, 40 µM (inactive); in the experiment with SNB-19, > 100 µM (inactive); in the experiment with HOP-92, 63.5 µM (inactive). Also, the GI50 is 28.4 µM (inactive) in the experiment on LXFL 529, > 100 µM (inactive) in the experiment with RXF 393, 20.8 µM (inactive) in the experiment on K562 and > 100 µM (inactive) in the experiment on NCI-H23.

In the case of `CCCCCCCCCCCCCCCC(=O)NC1CCc2cc(O)c(O)c(O)c2-c2ccc(SC)c(=O)cc21` (stereo not drawn), the GI50 was 12.9 µM (inactive) with OVCAR-5; 3.35 µM (inactive) in the experiment on HL-60; 1.61 µM (inactive) in the experiment with RPMI-8226; 4.42 µM (inactive) in the experiment with SK-MEL-5; 5.77 µM (inactive) with NCI-H460; 8.22 µM (inactive) with UO-31. Further, the GI50 is 8.39 µM (inactive) with IGROV-1; 7.67 µM (inactive) in the experiment on OVCAR-8; 3.86 µM (inactive) in the experiment with HCT-116; 13.1 µM (inactive) in the experiment with HT-29; 9.29 µM (inactive) in the experiment on SNB-19; 2.51 µM (inactive) with HOP-92. Further, the GI50 in the experiment on LXFL 529 was 1.44 µM (inactive); with RXF 393 it was 1.46 µM (inactive); with K562 it was 1.89 µM (inactive); in the experiment with NCI-H23, 1.37 µM (inactive).

For the compound `O=c1[nH]cc(COCC(O)CO)c(=O)[nH]1` (stereo not drawn), the GI50 with OVCAR-5, with HL-60, with RPMI-8226, in the experiment with SK-MEL-5, in the experiment on NCI-H460 and in the experiment on UO-31 was > 100 µM (inactive) throughout. Further, the GI50 in the experiment on IGROV-1, in the experiment on OVCAR-8, in the experiment with HCT-116, with HT-29, in the experiment with SNB-19 and with HOP-92 was > 100 µM (inactive) in each case. The GI50 in the experiment with LXFL 529, in the experiment on RXF 393, with K562 and in the experiment on NCI-H23 was > 100 µM (inactive) throughout.

For `C/C(=N\NS(=O)(=O)c1ccccc1)c1ccc[n+]([O-])n1`, the GI50 with OVCAR-5 was > 100 µM (inactive); with HL-60 it was 21.8 µM (inactive); with RPMI-8226, 28.1 µM (inactive); in the experiment on SK-MEL-5 it was > 100 µM (inactive); with NCI-H460 it was > 100 µM (inactive); with UO-31, > 100 µM (inactive). The GI50 with IGROV-1 is > 100 µM (inactive); in the experiment on OVCAR-8, 81.7 µM (inactive); with HCT-116, 88.1 µM (inactive); in the experiment with HT-29, > 100 µM (inactive); with SNB-19, > 100 µM (inactive); with HOP-92, 39 µM (inactive). Moreover, the GI50 in the experiment with LXFL 529 was 37.8 µM (inactive); in the experiment on K562, 21 µM (inactive); in the experiment with NCI-H23, > 100 µM (inactive).

On to `CCOC(=O)/C=C(/CN1C(=O)c2ccccc2C1=O)c1ccccc1`, for which the GI50 with OVCAR-5, in the experiment with RPMI-8226, in the experiment on SK-MEL-5, in the experiment with NCI-H460, in the experiment with UO-31 and in the experiment with IGROV-1 was > 100 µM (inactive) each time. Besides, the GI50 in the experiment on OVCAR-8, with HCT-116, in the experiment on HT-29, with SNB-19, in the experiment with HOP-92 and with LXFL 529 was > 100 µM (inactive) throughout. Also, the GI50 in the experiment with RXF 393, with K562 and in the experiment on NCI-H23 was > 100 µM (inactive) in each case.

`CN(CCN(C)C(=O)CCn1cc(F)c(=O)[nH]c1=O)C(=O)CCn1cc(F)c(=O)[nH]c1=O`: the GI50 in the experiment with OVCAR-5, in the experiment with HL-60, in the experiment on RPMI-8226, in the experiment on SK-MEL-5, in the experiment on NCI-H460 and with UO-31 was > 100 µM (inactive) in each case. For the same compound, the GI50 in the experiment with IGROV-1, in the experiment with OVCAR-8, in the experiment on HCT-116, with HT-29, with SNB-19 and with LXFL 529 was > 100 µM (inactive) each time. Moreover, the GI50 in the experiment with RXF 393, in the experiment with K562 and with NCI-H23 was > 100 µM (inactive) each time.

Take `Cc1c2ccnc(C(N)=O)c2c(C)c2c1[nH]c1ccccc12`: the GI50 in the experiment on OVCAR-5 was 18.8 µM (inactive); in the experiment on HL-60 it was 13.4 µM (inactive); in the experiment on RPMI-8226 it was 5.82 µM (inactive); in the experiment with SK-MEL-5, 6.18 µM (inactive); in the experiment with NCI-H460 it was 3.81 µM (inactive); in the experiment with UO-31, 6.43 µM (inactive). Also, the GI50 with IGROV-1 was 9.2 µM (inactive); in the experiment with OVCAR-8 it was 4.13 µM (inactive); in the experiment with HCT-116 it was 2.4 µM (inactive); in the experiment on HT-29, 6.35 µM (inactive); in the experiment on SNB-19, 8.13 µM (inactive); in the experiment with LXFL 529, 5.69 µM (inactive). Besides, the GI50 was 4.19 µM (inactive) with RXF 393, 11 µM (inactive) in the experiment with K562 and 4.84 µM (inactive) in the experiment with NCI-H23.
